According to article PMC10770490, “Two distinct modes of action of molecular glues in the plant hormone co-receptor COI1-JAZ system” (iScience, 2023):
Where two headings read alike, the source gives them in different places.

Assays:
COI1-JAZ1 = target: T1, COI1-JAZ1 (Arabidopsis thaliana, UniProt O04197+Q9LMA8, DEL221-253); test: biochemical; assay type: binding
T1 construct: GST (N, cleaved yes); made in house; host or cells: Sf9 insect cells (COI1-ASK1); JAZ peptide by chemical synthesis
Method: (§1) JAZ1/9 peptides were dissolved in sterilized water to generate 10 mM stock solutions and diluted to prepare 100 μM stock solutions. […] DSF experiments were carried out using StepOnePlus Real-Time PCR System (Thermo Fisher Scientific, Inc., MA, US). Protein Thermal Shift Dye (Thermo Fisher Scientific, Inc., MA, US) was used as the reporter dye. […] Samples were heated from 25 °C to 95 °C. The denaturation curve was obtained using Protein Thermal Shift Software (Thermo Fisher Scientific, Inc., MA, US) to afford ΔTm value for each condition. An average ΔTm value of three independent measurements was plotted, and ΔTm dose-response curves were analyzed with nonlinear curve-fitting analysis to evaluate Ka and Kd values using KaleidaGraph software (v4.1.1, Synergy Software).
(§2) The determination of the Kd value was conducted by curve fitting the dose-response ΔTm values. Experiments were performed in triplicate to obtain the mean and S.D. (shown as error bars). Dose-response curves were analyzed with the nonlinear curve-fitting analysis to evaluate apparent Ka and Kd values using KaleidaGraph v4.1.1 software.

COI1 [1] = target: T2, COI1 (Arabidopsis thaliana, UniProt O04197); test: Differential scanning fluorimetry (DSF) assay, COI1 alone; assay type: binding; details: for shift in the melting point of COI1: COI1 alone, substance titrated
T2 construct: GST (N, cleaved yes); made in house; host or cells: Sf9 insect cells
Method: as §1, with “COR/COR-MO/CFA-Ile were dissolved in DMSO, (3R,7S)/(3R,7R)-JA-Ile and cis-OPDA were dissolved in ethanol, JA was dissolved in sterilized water to generate 10 mM stock solutions and diluted with corresponding solvent for preparation of 100 μM and 1 mM stock solutions, respectively. JAZ1/9” for “JAZ1/9”
as §2

JAZP1 = test system: T3, JAZP1; test: Isothermal titration calorimetry (iTC), JAZP1 only; assay type: binding, Arabidopsis thaliana; details: 150 μM ligand into JAZP1 (10 μM), only heat of dilution
T3 construct: made in house; host or cells: chemical peptide synthesis
Method: (§3) The experiments were performed with iTC 200 Microcalorimeter (MicroCal, Malvern Panalytical, UK) at 25°C. GST-COI1 concentration was determined by BCA assay (Thermo Fisher Scientific, Inc., MA, US) using NanoPhotometerN60 (IMPLEN GmbH, Germany). […] The measurements were carried out by 19 × 2 μL successive injections of solutions (initial injection of 0.4 μL), with a 180s spacing time between injections, stirring of 750 rpm, and a reference power of 5 μcal/s. The measured heat changes of the binding reactions were integrated and processed using the standard “one set of sites” model implemented in the Origin (version 7.0) software package to determine the binding stoichiometry (n) and the equilibrium dissociation constant (Kd) and other thermodynamic parameters (ΔG, ΔH, ΔS).

COI1-JAZ9 [2] = target: T4, COI1-JAZ9 (Arabidopsis thaliana, UniProt O04197+Q8W4J8); test: DSF assay, COI1 with JAZ9 degron peptide (JAZP9); assay type: binding
T4 sequence (Q8W4J8 218-238, one chain of several): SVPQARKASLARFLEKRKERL
Method: as §1, with “COR/COR-MO/CFA-Ile were dissolved in DMSO, (3R,7S)/(3R,7R)-JA-Ile and cis-OPDA were dissolved in ethanol, JA was dissolved in sterilized water to generate 10 mM stock solutions and diluted with corresponding solvent for preparation of 100 μM and 1 mM stock solutions, respectively. JAZ1/9” for “JAZ1/9”
as §2

[3] = Isomerization under DSF conditions analyzed by UPLC-MS/MS; assay type: physicochemical; details: DSF heating conditions
Text: Thus, some amount of (3R, 7S)-JA-Ile still exists under the DSF heating conditions.

GST-COI1 = target: T5, GST-COI1 (Arabidopsis thaliana, UniProt O04197); test: Isothermal titration calorimetry (iTC), GST-COI1 only; assay type: binding
T5 construct: made in house; host or cells: Sf9 insect cells
T5 sequence (O04197 1-592): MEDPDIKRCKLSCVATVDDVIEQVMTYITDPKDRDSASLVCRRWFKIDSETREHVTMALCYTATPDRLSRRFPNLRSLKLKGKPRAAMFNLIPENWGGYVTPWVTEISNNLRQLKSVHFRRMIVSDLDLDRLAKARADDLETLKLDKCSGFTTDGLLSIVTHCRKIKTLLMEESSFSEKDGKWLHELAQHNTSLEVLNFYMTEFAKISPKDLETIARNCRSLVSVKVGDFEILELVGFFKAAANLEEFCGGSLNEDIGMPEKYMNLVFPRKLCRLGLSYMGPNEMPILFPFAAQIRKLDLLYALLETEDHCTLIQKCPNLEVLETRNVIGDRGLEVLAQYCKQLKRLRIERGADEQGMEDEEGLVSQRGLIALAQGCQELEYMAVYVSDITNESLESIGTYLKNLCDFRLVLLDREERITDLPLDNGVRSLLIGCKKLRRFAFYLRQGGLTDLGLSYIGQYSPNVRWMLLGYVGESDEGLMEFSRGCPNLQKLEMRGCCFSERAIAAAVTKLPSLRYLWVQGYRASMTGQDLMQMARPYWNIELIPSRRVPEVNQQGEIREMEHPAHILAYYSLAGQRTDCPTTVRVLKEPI
T5 sequence (Q39255 1-160 partner): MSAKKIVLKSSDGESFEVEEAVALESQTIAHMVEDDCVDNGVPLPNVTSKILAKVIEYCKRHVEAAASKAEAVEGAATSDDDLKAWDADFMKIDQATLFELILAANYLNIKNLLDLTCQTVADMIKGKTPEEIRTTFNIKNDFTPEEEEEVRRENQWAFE
Method: as §3

[4] = parameters: method as in PMID 19349968; details: after 1 h of heating at 95°C ref 12; cited from earlier work
GST-COI1/JAZP1 = target: T6, GST-COI1/JAZP1 (Arabidopsis thaliana, UniProt O04197+Q9LMA8, DEL221-253); test: Isothermal titration calorimetry (iTC), GST-COI1/JAZP1; assay type: binding
T6 construct: made in house; host or cells: Sf9 insect cells (GST-COI1/ASK1); JAZ peptide by chemical synthesis
T6 sequence (Q9LMA8 200-220, stated change not applied, one chain of several): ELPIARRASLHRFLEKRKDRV
Method: The experiments were performed with iTC 200 Microcalorimeter (MicroCal, Malvern Panalytical, UK) at 25°C. […] The measurements were carried out by 19 × 2 μL successive injections of solutions (initial injection of 0.4 μL), with a 180s spacing time between injections, stirring of 750 rpm, and a reference power of 5 μcal/s. The measured heat changes of the binding reactions were integrated and processed using the standard “one set of sites” model implemented in the Origin (version 7.0) software package to determine the binding stoichiometry (n) and the equilibrium dissociation constant (Kd) and other thermodynamic parameters (ΔG, ΔH, ΔS).

COI1-JAZP1 = target: COI1-JAZP1; parameters: method as in PMID 20927106; details: previously obtained ref 19; cited from earlier work
COI1-JAZ9 [5] = target: T4, COI1-JAZ9; parameters: method as in PMID 19349968; details: pull-down assay, times stronger ref 12; cited from earlier work
COI1 [6] = target: T2, COI1; details: read-out: Kd (COI1, iTC assay); previously reported using the iTC assay ref 18; cited from earlier work

With CC/C=C\C[C@H]1C(=O)CC[C@@H]1CC(=O)O (racemic) [racemic jasmonic acid, jasmonic acid] the “effect of addition of JAZP1/9 on the shift in melting point” value (COI1-JAZ1; DSF, COI1 with JAZP1/9) was “did not affect the shift in melting point” and the “shift in the melting point of COI1” value (COI1 [1]; DSF) was “no shift”.

For CC/C=C\C[C@@H]1C(=O)CC[C@@H]1CC(=O)N[C@H](C(=O)O)[C@@H](C)CC [(3R, 7S)-JA-Ile, (3R, 7S)-jasmonoyl-L-isoleucine], the “interaction between JAZP1-ligand” value (JAZP1) was “no interaction”, the Kd (COI1-JAZ9 [2]) was 7.39 µM and the “(3R, 7R)-JA-Ile formed by isomerization under DSF conditions” value [3] was 63.9%. The “(3R, 7S)-JA-Ile remaining under DSF conditions” value [3] was 36.1%, the Kd (GST-COI1) was 11 µM and the “-TΔS” value (GST-COI1; iTC, GST-COI1) was 13.3 kcal/mol. The ΔG (GST-COI1; iTC, GST-COI1) was -6.8 kcal/mol, the ΔH (GST-COI1; iTC, GST-COI1) was -20.0 kcal/mol and the “n (binding stoichiometry)” value (GST-COI1; iTC, GST-COI1, N = 1 set manually due to low C condition) was 1.00. The “(3R, 7S)-JA-Ile isomerized to (3R, 7R)-JA-Ile” value [4] was 65%, the “-TΔS” value (GST-COI1/JAZP1) was 14.8 kcal/mol and the “n (binding stoichiometry)” value (GST-COI1/JAZP1) was 0.641±0.0063. For the same molecule, the ΔG (GST-COI1/JAZP1) was -9.5 kcal/mol, the ΔH (GST-COI1/JAZP1) was -24.3 kcal/mol and the Kd (COI1-JAZ1; read-out: Kd COI1-JAZ1) was 17.7 µM.

CC[C@H]1C=C(C(=O)N[C@H](C(=O)O)[C@@H](C)CC)[C@H]2CCC(=O)[C@H]2C1 [CFA-Ile, (3R, 7S)-coronafacyl L-Ile] showed a Kd (COI1-JAZ9 [2]) of 2.95 µM, a Kd (COI1-JAZ1; read-out: Kd COI1-JAZ1) of 2.66 µM and a Kd (COI1 [1]) of 14.1 µM. The “shift in the melting point of COI1” value (COI1 [1]; DSF) was “significant shift”.

With CCC1C=C(C(=O)N[C@H](C(=O)O)C(C)C)C2CCC(=O)C2C1 (stereo partly drawn) [CFA-Val, (3R, 7S)-coronafacyl L-Val] the Kd (COI1-JAZ9 [2]; DSF, 1 μM tag-free COI1 with 3 μM JAZP9) was 9.77 µM, the Kd (COI1-JAZ1; DSF, 1 μM tag-free COI1 with 3 μM JAZP1, read-out: Kd COI1-JAZ1) was 6.63 µM and the “shift in the melting point of COI1” value (COI1 [1]; DSF) was “significant shift”. For the same molecule, the Kd (COI1 [1]; read-out: Kd COI1, DSF, 1 μM tag-free COI1, ΔTm dose-response curve fitting) was 28.1 µM.

In the case of CC[C@H]1C=C(C(=O)N[C@@]2(C(=O)O)C[C@@H]2CC)[C@H]2CCC(=O)[C@H]2C1 [COR, coronatine], the Kd (COI1-JAZ9 [2]) is given as 0.29 µM, the Kd (COI1-JAZP1) is given as about 0.11 µM and the “affinity for COI1-JAZ9 relative to (3R, 7S)-JA-Ile” value (COI1-JAZ9 [5]) is given as “approximately 100 times”. The Kd (COI1-JAZ1; read-out: Kd COI1-JAZ1) was 0.6 µM, the Kd (COI1 [6]) was 0.96 µM and the Kd (COI1 [1]) was 4.08 µM. For the same molecule, the “shift in the melting point of COI1” value (COI1 [1]; DSF) was “shifted to a higher temperature”.

Work on CC[C@H]1C=C(C(=O)N[C@@]2(C(=O)O)C[C@@H]2CC)[C@H]2CCC(=NOC)[C@H]2C1 [COR-MO] yielded a Kd (COI1-JAZ9 [2]) of 2.67 µM, a Kd (COI1-JAZ1; read-out: Kd COI1-JAZ1) of 2.31 µM and a Kd (COI1 [1]) of 2.65 µM. For the same molecule, the “shift in the melting point of COI1” value (COI1 [1]; DSF) was “shifted to a higher temperature”.

With CCC=CCC1C(=O)CCC1CC(=O)NC1(C(=O)O)CC1CC [JA-CMA, (3R, 7S)/(3R, 7R)-jasmonoyl CMA] the Kd (COI1-JAZ9 [2]) was 24.2 µM, the Kd (COI1-JAZ1) was 33.5 µM and the “shift in the melting point of COI1” value (COI1 [1]; DSF) was “little or no shift”.

For CC/C=C\C[C@@H]1C(=O)C=C[C@@H]1CCCCCCCC(=O)O [cis-OPDA, (+)-cis-12-oxo-phytodienoic acid], the “shift in the melting point of COI1” value (COI1 [1]; DSF) was “no shift”.
